Assay results from ChEMBL document CHEMBL3091273, “Sulphonamide 1,4-dithia-7-azaspiro[4,4]nonane derivatives as gelatinase A inhibitors” (Bioorg Med Chem, 2013).
The source made the active and inactive calls. The calls are words filed in the database; no cut-off is given here.

Assays:
Aminopeptidase N = target: T1, Aminopeptidase N (Sus scrofa, UniProt P15145); assay: Inhibition of pig kidney microsomal APN using L-Leu-p-nitroanilide as substrate preincubated for 30 mins by UV-vis spectrophotometry
T1 sequence (P15145 whole entry): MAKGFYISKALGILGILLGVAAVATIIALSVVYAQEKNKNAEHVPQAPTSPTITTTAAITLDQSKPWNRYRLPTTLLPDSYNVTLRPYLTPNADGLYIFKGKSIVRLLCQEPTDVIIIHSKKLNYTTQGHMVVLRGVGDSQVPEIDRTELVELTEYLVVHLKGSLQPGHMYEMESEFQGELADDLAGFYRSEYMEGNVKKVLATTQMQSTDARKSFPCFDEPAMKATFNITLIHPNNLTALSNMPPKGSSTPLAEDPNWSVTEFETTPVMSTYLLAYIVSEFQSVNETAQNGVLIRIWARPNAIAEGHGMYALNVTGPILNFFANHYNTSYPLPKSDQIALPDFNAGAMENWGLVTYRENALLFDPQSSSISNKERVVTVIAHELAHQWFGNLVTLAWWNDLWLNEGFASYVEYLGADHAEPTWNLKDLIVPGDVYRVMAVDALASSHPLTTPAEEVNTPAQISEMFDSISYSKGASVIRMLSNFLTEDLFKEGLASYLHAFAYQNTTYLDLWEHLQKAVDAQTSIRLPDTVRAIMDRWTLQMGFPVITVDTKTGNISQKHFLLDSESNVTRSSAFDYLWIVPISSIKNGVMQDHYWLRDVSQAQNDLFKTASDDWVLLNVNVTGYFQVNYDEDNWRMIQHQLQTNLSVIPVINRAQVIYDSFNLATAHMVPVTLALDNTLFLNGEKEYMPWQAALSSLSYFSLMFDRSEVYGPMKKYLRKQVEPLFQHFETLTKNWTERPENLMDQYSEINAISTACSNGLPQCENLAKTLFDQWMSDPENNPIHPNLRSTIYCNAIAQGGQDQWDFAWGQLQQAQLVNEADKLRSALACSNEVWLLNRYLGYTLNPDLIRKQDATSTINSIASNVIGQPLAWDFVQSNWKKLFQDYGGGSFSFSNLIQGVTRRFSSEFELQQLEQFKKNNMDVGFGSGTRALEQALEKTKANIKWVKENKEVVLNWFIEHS

[1] = target: 72 kDa type IV collagenase (Homo sapiens, UniProt P08253); assay: Inhibition of gelatinase A (unknown origin) after 30 mins by spectrophotometry
SK-OV-3 = assay: Antiproliferative activity against human SKOV3 cells after 48 hrs by MTT assay; format: functional, cell-based; conditions: SK-OV-3, 48 h
H22 [2] = assay: Antimetastatic activity in […] cells xenografted Kunming mouse assessed as inhibition of tumor nodules formation at 50 mg/kg, po administered 6 days a week for two consecutive weeks; format: functional; conditions: H22, 144 h
HL-60 = assay: Antiproliferative activity against human HL60 cells after 48 hrs by MTT assay; format: functional, cell-based
Mus musculus = assay: Toxicity in […] cells xenografted Kunming mouse assessed as change in body weight at 50 mg/kg, po administered 6 days a week for two consecutive weeks (reference value: 26.03 +/- 5.04 grams); format: organism-based; set-up: dose 50 mg/kg, route oral; conditions: in vivo, 144 h
H22 [3] = assay: Antimetastatic activity in […] cells xenografted Kunming mouse assessed as lung weight at 50 mg/kg, po administered 6 days a week for two consecutive weeks (reference value: 0.223 +/- 0.067 grams); format: functional
K562 = assay: Antiproliferative activity against human K562 cells after 48 hrs by MTT assay; format: functional, cell-based

72 kDa type IV collagenase, sequence (P08253 whole entry): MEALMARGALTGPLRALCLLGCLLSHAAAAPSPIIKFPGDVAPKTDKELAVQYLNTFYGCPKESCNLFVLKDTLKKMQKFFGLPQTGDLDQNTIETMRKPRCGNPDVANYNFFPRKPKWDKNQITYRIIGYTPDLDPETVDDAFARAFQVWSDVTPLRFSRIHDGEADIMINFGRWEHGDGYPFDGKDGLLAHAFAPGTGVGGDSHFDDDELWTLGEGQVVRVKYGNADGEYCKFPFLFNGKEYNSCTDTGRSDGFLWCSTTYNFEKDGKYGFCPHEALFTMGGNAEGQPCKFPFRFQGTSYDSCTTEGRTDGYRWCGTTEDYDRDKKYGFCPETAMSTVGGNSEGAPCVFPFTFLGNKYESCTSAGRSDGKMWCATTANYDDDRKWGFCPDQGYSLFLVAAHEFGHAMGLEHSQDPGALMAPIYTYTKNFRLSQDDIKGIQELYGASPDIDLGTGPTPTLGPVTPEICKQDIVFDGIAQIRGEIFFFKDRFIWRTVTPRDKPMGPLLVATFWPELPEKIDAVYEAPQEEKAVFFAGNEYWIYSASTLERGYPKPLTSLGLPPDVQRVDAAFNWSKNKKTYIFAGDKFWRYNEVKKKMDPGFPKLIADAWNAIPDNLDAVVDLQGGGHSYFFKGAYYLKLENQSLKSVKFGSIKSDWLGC

Row | SMILES | IC50 (Aminopeptidase N) | IC50 [1] | other results
1 | Cc1ccc(S(=O)(=O)N2CC3(C[C@H]2C(=O)O)SCCS3)cc1 | Not Active | 2780 nM | 
2 | COC(=O)[C@@H]1CC2(CN1S(=O)(=O)c1ccc([N+](=O)[O-])cc1)SCCS2 | Not Active | 77900 nM | 
3 | COc1ccc(/C=C/C(=O)N2CC(NC(=O)c3cccnc3)CC2C(=O)NO)cc1OC (configuration not stated) | Not Active | 1020 nM | 
4 | O=C(O)[C@@H]1CC2(CN1S(=O)(=O)c1ccccc1)SCCS2 | Not Active | 28200 nM | 
5 | COc1ccc(S(=O)(=O)N2CC3(C[C@H]2C(=O)NN)SCCS3)cc1 | Not Active | 10800 nM | 
6 | O=C(Cc1ccccc1)NNC(=O)[C@@H]1CC2(CN1S(=O)(=O)c1ccc([N+](=O)[O-])cc1)SCCS2 | Not Active | 1800 nM | 
7 | COc1ccc(S(=O)(=O)N2CC3(C[C@H]2C(=O)O)SCCS3)cc1 | Not Active | 9480 nM | 
8 | NNC(=O)[C@@H]1CC2(CN1S(=O)(=O)c1ccc([N+](=O)[O-])cc1)SCCS2 | Not Active | 20600 nM | 
9 | COC(=O)[C@@H]1CC2(CN1S(=O)(=O)c1ccccc1)SCCS2 | Not Active | 3090 nM | 
10 | NNC(=O)[C@@H]1CC2(CN1S(=O)(=O)c1ccccc1)SCCS2 | Not Active | 6560 nM | 
11 | O=C(Cc1ccccc1)NNC(=O)[C@@H]1CC2(CN1S(=O)(=O)c1ccccc1)SCCS2 | Not Active | 5440 nM | 
12 | Cc1ccc(S(=O)(=O)N2CC3(C[C@H]2C(=O)NN)SCCS3)cc1 | Not Active | 429000 nM | 
13 | COC(=O)[C@@H]1CC2(CN1S(=O)(=O)c1ccc(OC)cc1)SCCS2 | Not Active | 7480 nM | 

The next molecules have a lower IC50 [1] than those just listed; values first:

Row | IC50 (Aminopeptidase N) | IC50 [1] | SMILES | other results
14 | Not Active | 878 nM | COC(=O)[C@@H]1CC2(CN1S(=O)(=O)c1ccc(C)cc1)SCCS2 | 
15 | Not Active | 877 nM | O=C(NO)[C@@H]1CC2(CN1S(=O)(=O)c1ccccc1)SCCS2 | 
16 | Not Active | 835 nM | O=C(O)[C@@H]1CC2(CN1S(=O)(=O)c1ccc([N+](=O)[O-])cc1)SCCS2 | IC50 (SK-OV-3): 210000 nM; inhibition in vivo at 50 mg/kg (H22 [2]): 26.3%; Activity (HL-60): inactive; Activity (Mus musculus): 25.59 g; Activity (H22 [3]): 0.288 g; Activity (K562): inactive
17 | Not Active | 786 nM | O=C(NO)[C@@H]1CC2(CN1S(=O)(=O)c1ccc([N+](=O)[O-])cc1)SCCS2 | 
18 | Not Active | 679 nM | Cc1ccc(S(=O)(=O)N2CC3(C[C@H]2C(=O)NNC(=O)Cc2ccccc2)SCCS3)cc1 | IC50 (SK-OV-3): 150000 nM; inhibition in vivo at 50 mg/kg (H22 [2]): 34.3%; Activity (HL-60): inactive; Activity (Mus musculus): 27.9 g; Activity (H22 [3]): 0.27 g; Activity (K562): inactive
19 | Not Active | 678 nM | CCOC(=O)CNC(=O)[C@@H]1CC2(CN1S(=O)(=O)c1ccccc1)SCCS2 | 
20 | Not Active | 678 nM | Cc1ccc(S(=O)(=O)N2CC3(C[C@H]2C(=O)NO)SCCS3)cc1 | 
21 | Not Active | 530 nM | CCOC(=O)CNC(=O)[C@@H]1CC2(CN1S(=O)(=O)c1ccc(C)cc1)SCCS2 | 
22 | Not Active | 516 nM | COc1ccc(S(=O)(=O)N2CC3(C[C@H]2C(=O)NO)SCCS3)cc1 | 
23 | Not Active | 386 nM | COc1ccc(S(=O)(=O)N2CC3(C[C@H]2C(=O)NNC(=O)Cc2ccccc2)SCCS3)cc1 | 
24 | Not Active | 325 nM | CCOC(=O)CNC(=O)[C@@H]1CC2(CN1S(=O)(=O)c1ccc([N+](=O)[O-])cc1)SCCS2 | 
25 | Not Active | 325 nM | CCOC(=O)CNC(=O)[C@@H]1CC2(CN1S(=O)(=O)c1ccc(OC)cc1)SCCS2 | 
